From ChEMBL document CHEMBL1147306, “Studies on inhibitors of skin tumor promotion, VI. Inhibitory effects of quinones on Epstein-Barr virus activation” (J Nat Prod, 1989) come the findings set out here.

What all share (assay type): cell-based
The subject of data set [1] is Raji. The data set can be described thus: Inhibition of TPA-induced EBV-early antigen activation in human Raji cells at 500 molar ratio after 48 hrs by indirect immunofluorescence technique relative to TPA. The settings on record: human gammaherpesvirus 4.
For data set [2], the system named is Raji. Put plainly: Inhibition of TPA-induced EBV-early antigen activation in human Raji cells at 100 molar ratio after 48 hrs by indirect immunofluorescence technique relative to TPA. The settings on record: human gammaherpesvirus 4.
Data set [3] has as its system Raji. The data set can be described thus: Inhibition of TPA-induced EBV-early antigen activation in human Raji cells at 10 molar ratio after 48 hrs by indirect immunofluorescence technique relative to TPA. Particulars: human gammaherpesvirus 4.
A short description of data set [4]: Cytotoxicity against human Raji cells assessed as cell viability at 1000 molar ratio. Particulars: read-out: Activity.
The nature of data set [5]: Cytotoxicity against human Raji cells assessed as cell viability at 500 molar ratio. Particulars: read-out: Activity.
Data set [6] in a line: Cytotoxicity against human Raji cells assessed as cell viability at 100 molar ratio. Particulars: read-out: Activity.
Data set [7] in a line: Cytotoxicity against human Raji cells assessed as cell viability at 10 molar ratio. The settings on record: read-out: Activity.

For `O=C(O)c1cc(O)c2c(c1)[C@@H]([C@H]1c3cc(C(=O)O)cc(O)c3C(=O)c3c(O[C@@H]4O[C@H](CO)[C@@H](O)[C@H](O)[C@H]4O)cccc31)c1cccc(O[C@@H]3O[C@H](CO)[C@@H](O)[C@H](O)[C@H]3O)c1C2=O` [SENNOSIDE B], the EBV-EA activation % of TPA control in data set [1], in data set [2] and in data set [3] was 100% in each case. The viability at 1000 molar ratio in data set [4] was found to be 70%. Further, in data set [5], the viability at 500 molar ratio is over 80%. For the same compound, the viability at 100 molar ratio in data set [6] is over 80%. Moreover, the viability at 10 molar ratio in data set [7] is over 80%.
Consider `COc1c(CO)c(O)cc2c1C(=O)c1cccc(O)c1C2=O` [JUZUNOL], for which the EBV-EA activation % of TPA control in data set [1], in data set [2] and in data set [3] was 100% throughout. In data set [4], the viability at 1000 molar ratio is over 80%. Also, the viability at 500 molar ratio in data set [5] is over 80%. For the same compound, in data set [6], the viability at 100 molar ratio was over 80%. In addition, the viability at 10 molar ratio in data set [7] was over 80%.
Consider `Cc1ccc2c(n1)C(=O)c1c(O)cccc1C2=O`, for which the EBV-EA activation % of TPA control is 17.3% in data set [1], 56.8% in data set [2] and 92.4% in data set [3]. Moreover, in data set [4], the viability at 1000 molar ratio was found to be 10%. The viability at 500 molar ratio in data set [5] is 50%. Also, the viability at 100 molar ratio in data set [6] was over 80%. For the same compound, the viability at 10 molar ratio in data set [7] was over 80%.
As to `Cc1cnc2c(c1)C(=O)c1c(O)ccc(O)c1C2=O`, the EBV-EA activation % of TPA control was 16.8% in data set [1], 82.6% in data set [2] and 100% in data set [3]. Besides, the viability at 1000 molar ratio in data set [4] is 40%. Besides, the viability at 500 molar ratio in data set [5] stood at 50%. Further, the viability at 100 molar ratio in data set [6] is over 80%. Besides, the viability at 10 molar ratio in data set [7] was over 80%.
For the compound `Cc1cc(O)c2c(c1)C(=O)c1cc(O)cc(O)c1C2=O` [EMODIN], the results for the EBV-EA activation % of TPA control in data set [1], in data set [2] and in data set [3] were 54.2%, 91.1% and 100%, respectively. In addition, the viability at 1000 molar ratio in data set [4] is over 80%. Besides, in data set [5], the viability at 500 molar ratio is over 80%. For the same compound, the viability at 100 molar ratio in data set [6] was over 80%. Further, the viability at 10 molar ratio in data set [7] is over 80%.
For `O=C1c2ccc(O)c(O)c2C(=O)c2c(O)ccc(O)c21` [QUINALIZARIN], the results for the EBV-EA activation % of TPA control in data set [1], in data set [2] and in data set [3] were 0%, 88.4% and 100%, respectively. In addition, the viability at 1000 molar ratio in data set [4] worked out at 40%. Further, in data set [5], the viability at 500 molar ratio was 60%. Besides, in data set [6], the viability at 100 molar ratio is over 80%. For the same compound, the viability at 10 molar ratio in data set [7] was over 80%.
For `Cc1ccnc2c1C(=O)c1cc(O)ccc1C2=O`, the EBV-EA activation % of TPA control in data set [1] came out at 73.9%; in data set [2], 74.4%; in data set [3], 100%. The viability at 1000 molar ratio in data set [4] was found to be 60%. The viability at 500 molar ratio in data set [5] was 60%. For the same compound, in data set [6], the viability at 100 molar ratio was over 80%. For the same compound, the viability at 10 molar ratio in data set [7] is over 80%.
For the compound `COCc1c(O)cc2c(c1O)C(=O)c1ccccc1C2=O`, the EBV-EA activation % of TPA control in data set [1] came out at 77%; in data set [2] it was 80.4%; in data set [3], 100%. For the same compound, the viability at 1000 molar ratio in data set [4] stood at 60%. For the same compound, in data set [5], the viability at 500 molar ratio is over 80%. In addition, the viability at 100 molar ratio in data set [6] was over 80%. The viability at 10 molar ratio in data set [7] is over 80%.
Take `O=C1c2ccccc2C(=O)c2c1ccc(O)c2O` [ATHRAQUINONES A]: the EBV-EA activation % of TPA control turned out to be 92.4% in data set [1], 100% in data set [2] and 100% in data set [3]. In data set [4], the viability at 1000 molar ratio was 60%. For the same compound, the viability at 500 molar ratio in data set [5] was over 80%. In addition, the viability at 100 molar ratio in data set [6] was over 80%. Besides, the viability at 10 molar ratio in data set [7] was over 80%.
For `CN(C)C1=CC(=O)c2c(O)cccc2C1=O`, the values for the EBV-EA activation % of TPA control in data set [1], in data set [2] and in data set [3] were 60.5%, 61.5% and 89.2%, respectively. Moreover, in data set [4], the viability at 1000 molar ratio is over 80%. In data set [5], the viability at 500 molar ratio is over 80%. Also, the viability at 100 molar ratio in data set [6] was over 80%. The viability at 10 molar ratio in data set [7] was over 80%.
As to `CC1(c2cc3c(o2)C(=O)c2ccccc2C3=O)OCCO1`, the values for the EBV-EA activation % of TPA control in data set [1], in data set [2] and in data set [3] were 0%, 0% and 32.4%, respectively. The viability at 1000 molar ratio in data set [4] was 0%. Further, in data set [5], the viability at 500 molar ratio turned out to be 10%. The viability at 100 molar ratio in data set [6] was found to be 10%. In addition, in data set [7], the viability at 10 molar ratio amounted to 60%.
Consider `CC1=C(C/C=C(\C)CCC[C@H](C)CCC[C@H](C)CCCC(C)C)C(=O)c2ccccc2C1=O` [PHYTONADIONE], for which the EBV-EA activation % of TPA control in data set [1], in data set [2] and in data set [3] was 100% each time. For the same compound, the viability at 1000 molar ratio in data set [4] came out at 70%. The viability at 500 molar ratio in data set [5] is over 80%. Moreover, in data set [6], the viability at 100 molar ratio is over 80%. Also, in data set [7], the viability at 10 molar ratio was over 80%.
For `O=C1C=CC(=O)c2ccccc21` [NAPHTHOQUINONE], the EBV-EA activation % of TPA control is 0% in data set [1], 37.5% in data set [2] and 100% in data set [3]. Moreover, the viability at 1000 molar ratio in data set [4] came out at 20%. The viability at 500 molar ratio in data set [5] came to 50%. The viability at 100 molar ratio in data set [6] is 50%. In data set [7], the viability at 10 molar ratio was over 80%.
With `Cc1ccnc2c1C(=O)c1ccccc1-2` [ONYCHINE], the EBV-EA activation % of TPA control came to 94.1% in data set [1], 100% in data set [2] and 100% in data set [3]. Also, the viability at 1000 molar ratio in data set [4] came to 70%. Also, the viability at 500 molar ratio in data set [5] is over 80%. Also, the viability at 100 molar ratio in data set [6] was over 80%. For the same compound, the viability at 10 molar ratio in data set [7] was over 80%.
With `Cc1cnc2c(c1)C(=O)c1cccc(O)c1C2=O`, the figures for the EBV-EA activation % of TPA control in data set [1], in data set [2] and in data set [3] were 15.8%, 72.4% and 100%, respectively. Also, in data set [4], the viability at 1000 molar ratio came to 30%. Further, in data set [5], the viability at 500 molar ratio is over 80%. Also, in data set [6], the viability at 100 molar ratio was 60%. In data set [7], the viability at 10 molar ratio was over 80%.
Turning to `O=C1C=CC(=O)c2c(O)cccc21` [JUGLONE], the EBV-EA activation % of TPA control was 13.1% in data set [1], 97.8% in data set [2] and 100% in data set [3]. The viability at 1000 molar ratio in data set [4] worked out at 40%. The viability at 500 molar ratio in data set [5] is 60%. The viability at 100 molar ratio in data set [6] was over 80%. The viability at 10 molar ratio in data set [7] is over 80%.
As for `COc1cccc2c1C(=O)c1c(ccc3c1OCO3)C2=O`, the EBV-EA activation % of TPA control came to 57.6% in data set [1], 82.5% in data set [2] and 100% in data set [3]. Besides, the viability at 1000 molar ratio in data set [4] worked out at 60%. The viability at 500 molar ratio in data set [5] was over 80%. For the same compound, in data set [6], the viability at 100 molar ratio was over 80%. Further, the viability at 10 molar ratio in data set [7] was over 80%.
